Measurements as given in patent US8658661B2, “Oxadiazole inhibitors of leukotriene production” (Boehringer Ingelheim International GmbH, priority 2010, dated 2014).

What was measured:
ApoE−/−xCD4dnTβRII mice = settings: via infusion, treated for four weeks; cited from earlier work
[1] = test system: apoE/LDL-R double knockout mice; settings: oral dosing, high-fat diet from 2 months of age to 6 months; cited from earlier work
[2] = test system: biomarkers for myocardial infarction risk; settings: clinical trial; cited from earlier work
human glomerulonephritis = settings: clinical trial; cited from earlier work
[3] = target: T1, recombinant human FLAP protein (Homo sapiens, UniProt P20292); experiment: FLAP binding assay (SPA, displacement of [125I]L-691,831); settings: membranes of sf9 cells expressing recombinant human FLAP; [125I]L-691,831 probe; read-out: FLAP binding IC50
T1 construct: made in house; host or cells: Sf9 insect cells (100,000×g membrane pellet used)
T1 sequence (P20292 1-161): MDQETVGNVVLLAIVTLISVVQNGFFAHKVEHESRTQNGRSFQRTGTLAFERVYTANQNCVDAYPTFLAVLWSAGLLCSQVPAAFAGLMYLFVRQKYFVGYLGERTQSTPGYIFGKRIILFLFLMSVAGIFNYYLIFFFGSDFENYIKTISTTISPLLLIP
Summary of the method: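 Membranes from sf9 cells expressing human FLAP in pH 7.5 Tris buffer (MgCl2, EDTA, PMSF). Non-specific binding defined with 10 μM cold L-691,831.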

[4] = test system: synthesis of LTB4 in human whole blood; experiment: Human whole blood assay (inhibition of LTB4 synthesis, calcimycin stimulated); assay type: cell-based; settings: heparinized human whole blood, calcimycin 20 μM, plasma LTB4
Summary of the method: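 Steps: compound plus heparinized human whole blood, 15 min at 37° C; add calcimycin to 20 μM final; incubate another 30 min at 37° C; centrifuge at low speed and collect plasma; measure LTB4 with a homogeneous time-resolved fluorescence immunoassay.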

IC50 [3]	IC50 [4]	SMILES	further results
23 nM	260 nM	CC(C)(O)Cn1cc(-c2nc(C(C)(C)c3ccc(-c4cnc(N)nc4)cc3)no2)cn1 [Example 75, 1-[4-(3-{2-[4-(2-aminopyrimidin-5-yl)phenyl]propan-2-yl}-1,2,4-oxadiazol-5-yl)-1H-pyrazol-1-yl]-2-methylpropan-2-ol]	–
19 nM	680 nM	C[C@](c1ccc(-c2cnc(N)nc2)cc1)(c1noc(-c2cn[nH]c2)n1)C1CC1 [Example 49, 5-(4-{(1S)-1-cyclopropyl-1-[5-(1H-pyrazol-4-yl)-1,2,4-oxadiazol-3-yl]ethyl}phenyl)pyrimidin-2-amine]	–
2.3 nM	110 nM	COCCn1cc(-c2nc([C@@](C)(c3ccc(-c4cnc(N)nc4)cc3)C3CCC3)no2)cn1 [Example 100, 5-{4-[(1R)-1-cyclobutyl-1-{5-[1-(2-methoxyethyl)-1H-pyrazol-4-yl]-1,2,4-oxadiazol-3-yl}ethyl]phenyl}pyrimidin-2-amine]	–
190 nM	2800 nM	CC(C)C(C)(c1ccc(-c2cnc(N)nc2)cc1)c1noc(C2CCNCC2)n1 (stereo not shown) [Example 110, 5-(4-{3-methyl-2-[5-(piperidin-4-yl)-1,2,4-oxadiazol-3-yl]butan-2-yl}phenyl)pyrimidin-2-amine]	–
4.4 nM	190 nM	C[C@@](c1ccc(-c2ccc(N)nc2)cc1)(c1noc(-c2cnc(N3CCNCC3)cn2)n1)C1CC1 [Example 210, 5-(4-{(R)-1-Cyclopropyl-1-[5-(3,4,5,6-tetrahydro-2H-[1,2′]bipyrazinyl-5′-yl)-[1,2,4]oxadiazol-3-yl]-ethyl}-phenyl)-pyridin-2-ylamine]	–
26 nM	1100 nM	CC(C)C(C)(c1ccc(-c2cnc(N)nc2)cc1)c1noc(N2CCNCC2)n1 (stereo not shown) [Example 83, 5-(4-{3-methyl-2-[5-(piperazin-1-yl)-1,2,4-oxadiazol-3-yl]butan-2-yl}phenyl)pyrimidin-2-amine]	–
3.8 nM	160 nM	CNC(=O)Cn1cc(-c2nc([C@@](C)(c3ccc(-c4cnc(N)nc4)cc3)C3CC3)no2)cn1 [Example 230, 2-[4-(3-{(R)-1-[4-(2-Amino-pyrimidin-5-yl)-phenyl]-1-cyclopropyl-ethyl}-[1,2,4]oxadiazol-5-yl)-pyrazol-1-yl]-N-methyl-acetamide]	–

The next lines start with the compound.

SMILES	IC50 [3]	IC50 [4]	further results
CC(C)c1ccc2c(c1)c(SC(C)(C)C)c(CC(C)(C)C(=O)O)n2Cc1ccc(Cl)cc1 [MK-886]	–	–	decrease in plaque area in the aortic root (ApoE−/−xCD4dnTβRII mice): ~40%; decrease in plaque coverage in the aorta [1]: 56%; decrease in plaque coverage in the aortic root [1]: 43%
O=C(O)[C@@H](c1ccc(OCc2ccc3ccccc3n2)cc1)C1CCCC1 [DG-031]	–	–	effect on biomarkers for myocardial infarction risk [2]: dose-dependent suppression of several biomarkers
CC(C)(C)Sc1c(CC(C)(C)C(=O)O)n(Cc2ccc(Cl)cc2)c2ccc(OCc3ccc4ccccc4n3)cc12 [MK-591]	–	–	effect on proteinuria in human glomerulonephritis (human glomerulonephritis): reduce proteinuria
CC(C)C(C)(c1ccc(-c2cnc(N)nc2)cc1)c1noc(N2CCN(CC(=O)O)CC2)n1 (stereo not shown) [Example 272, [4-(3-{1-[4-(2-Amino-pyrimidin-5-yl)-phenyl]-1,2-dimethyl-propyl}-[1,2,4]oxadiazol-5-yl)-piperazin-1-yl]-acetic acid]	280 nM	> 5000 nM	–
CC(C)C(C)(c1ccc(-c2cnc(N)nc2)cc1)c1noc(N2CCC(N)CC2)n1 (stereo not shown) [Example 222, 5-(4-{1-[5-(4-Amino-piperidin-1-yl)-[1,2,4]oxadiazol-3-yl]-1,2-dimethyl-propyl}-phenyl)-pyrimidin-2-ylamine]	130 nM	1700 nM	–
COCCNc1cnc(-c2nc(C(C)(c3ccc(-c4cnc(N)nc4)cc3)C(C)C)no2)cn1 (stereo not shown) [Example 162, 5-{4-[2-(5-{5-[(2-methoxyethyl)amino]pyrazin-2-yl}-1,2,4-oxadiazol-3-yl)-3-methylbutan-2-yl]phenyl}pyrimidin-2-amine]	2.3 nM	41 nM	–
